Test results taken from publication PMC10294875, “Ether Derivatives of Naringenin and Their Oximes as Factors Modulating Bacterial Adhesion” (Antibiotics, 2023).
Converted amounts (≈) assume the structure as drawn.

Columns and labels:
HT-29 cell line = experiment: SRB assay, antiproliferative activity against HT-29; assay type: cell-based, human; conditions: for IC50: Homo sapiens; for cytotoxic / antiproliferative effect against HT-29 (in words): SRB, tested concentration range 1–100 µg/mL
Description: (§1) The human adenocarcinoma cell line, HT-29 (ATCC HTB-38), was cultured in αMEM medium (IITD PAN) supplemented with 10% fetal bovine serum, FBS (Sigma-Aldrich, Taufkirchen, Germany), 100 U/mL penicillin, 100 µg/mL streptomycin antibiotic solution (Sigma-Aldrich, Taufkirchen, Germany), and 2 mM glutamine solution (Sigma-Aldrich, Taufkirchen, Germany). Cells from less than 20 passages were used for the study. In turn, preadipocytes from mouse embryos with the morphology of fibroblast cells, line 3T3-L1 (ATCC CL-173), were cultured in DMEM high-glucose medium (Life Technologies Corporation, Carlsbad, CA, USA) with the same supplements as above. Cells from less than 14 passages were used for the study. Both tested cell lines were grown at 37 °C in 5% CO2.
(§2) The effect of O-alkyl derivatives of naringenin and their oximes on eukaryotic cells was checked using a slightly modified SRB test described earlier. Firstly, HT-29 (1 × 10^5 cells/mL) and 3T3-L1 (5 × 10^4 cells/mL) cell lines were incubated in adherent microtiter plates under the conditions described above. The cells were then treated for 2 h with the tested compounds 1a–10a and 1b–10b at concentrations of 1, 5, 10, 25, 50, 75, and 100 µg/mL each. After this time, the medium was removed and replaced with one containing 50% (wt/vol) trichloroacetic acid (TCA; Sigma-Aldrich, Taufkirchen, Germany). Following 1 h of incubation at 4 °C, the plate was rinsed with water, and then an acidic solution of 0.4% sulforhodamine B (SRB) (Sigma-Aldrich, Taufkirchen, Germany), was added to the dried wells and incubated in the dark for half an hour. At the end of this time, the SRB solution was replaced by 1% (vol/vol) acetic acid, and the stained protein precipitate was dissolved in 10 mM Tris base solution (pH 10.5). Absorbance was measured at 560 nm in a plate reader (GloMax Discover Microplate Reader, Promega).
(§3) The cytotoxic effect of O-alkyl derivatives of naringenin and their oximes on eukaryotic cells was expressed as the concentration of the tested compounds at which 50% growth inhibition of the tested cell lines was observed. Values were presented in the form of the survival index (SI)–IC50. All determinations were repeated in three independent experiments, each performed in three technical replicates. Moreover, the effect of DMSO (Sigma-Aldrich, Taufkirchen, Germany), the solvent present in all the initial solutions of the tested compounds, on the growth of the cell lines used in the study was also verified.

3T3-L1 cell line = experiment: SRB assay, antiproliferative activity against 3T3-L1; assay type: cell-based, mouse; conditions: for IC50: Mus musculus; for cytotoxic / antiproliferative effect against 3T3-L1 (in words): SRB, tested concentration range 1–100 µg/mL
Description: as §1, §2, §3

[1] = system: Escherichia coli K12 (ATCC 10798); experiment: Adhesion assay, static conditions: E. coli to 3T3-L1 cell line; assay type: cell-based
Description: (§4) The study used two reference strains, Escherichia coli K12 (ATCC 10798) and Enterococcus faecalis (ATCC 29212), obtained from the American Type Culture Collection. Both strains were stored in trypticase soy broth (TSB; OXOID, Basingstoke, UK) with the addition of 30% glycerol at −70 °C in the museum resources of the Department of Microbiology at the Wroclaw Medical University.
(§5) For studies determining the interaction of bacteria with eukaryotic cells, suspensions of the tested strains were prepared in Luria broth (LB, Becton, Dickinson and Company, USA) medium with a bacterial density of 6 × 10^8 CFU/mL.
(§6) The adhesion ability of the tested bacterial strains to HT-29 and 3T3-L1 cell lines was determined by an in vitro adhesion assay as described previously. Eukaryotic cells were infected with prokaryotic cells in the presence of the examined compounds in pre-selected concentrations at an MOI (multiplicity of infection) ratio of 50. Cells were exposed to the tested strains and compounds for 2 h. After this time, unbound bacteria were removed by washing with PBS (Life Technologies Corporation, Carlsbad, CA, USA). The lysates acquired by cell lysis (0.5% Triton X-100 in LB): 90 min, 37 °C, 5% CO2 atmosphere, were then seeded onto TSA and MC media for E. faecalis and E. coli, respectively. The assays were performed in at least three independent experiments (cells from subsequent passages), each in triplicate. A control without tested compounds was set for each strain.

[2] = system: Escherichia coli K12 (ATCC 10798); experiment: Adhesion assay, static conditions: E. coli to HT-29 cell line; assay type: cell-based
Description: as §4, §5, §6

[3] = system: Enterococcus faecalis (ATCC 29212); experiment: Adhesion assay, static conditions: E. faecalis to 3T3-L1 cell line; assay type: cell-based
Description: as §4, §5, §6

[4] = 2 h incubation, SRB assay, HT-29
[5] = 2 h incubation, SRB assay, 3T3-L1

CCCCCCOc1cc(O)c2c(c1)O[C@H](c1ccc(O)cc1)CC2=O [Compound 1a, 7-O-hexylnaringenin]
IC50 lower than compound 7a (ratio) (HT-29 cell line; HT-29, 1a vs 7a): 1.8 times | IC50 (HT-29 cell line; [4]): 25.4 µg/mL (≈ 71.2 µM) | cytotoxic / antiproliferative effect against HT-29 (in words) (HT-29 cell line): antiproliferative activity | IC50 (3T3-L1 cell line; [5]): 25.8 µg/mL (≈ 72.4 µM) | cytotoxic / antiproliferative effect against 3T3-L1 (in words) (3T3-L1 cell line): cytotoxic activity

CCCCCCOc1cc(O)c2c(c1)O[C@H](c1ccc(O)cc1)CC2=NO [Compound 1b, 7-O-hexylnaringenin oxime]
IC50 (HT-29 cell line; [4]): 38.4 µg/mL (≈ 103 µM) | cytotoxic / antiproliferative effect against HT-29 (in words) (HT-29 cell line): cytotoxic effects | IC50 (3T3-L1 cell line; [5]): 35 µg/mL (≈ 94.2 µM) | attachment of E. coli to 3T3-L1 decreased to ([1]; 1 µg/mL): 63% | adherence of E. coli to 3T3-L1 ([1]; 25 µg/mL): practically not observed

CCCCCCOc1ccc([C@@H]2CC(=O)c3c(O)cc(OCCCCCC)cc3O2)cc1 [Compound 2a, 7,4’-di-O-hexylnaringenin]
IC50 (HT-29 cell line; [4]): > 100 µg/mL | cytotoxic / antiproliferative effect against HT-29 (in words) (HT-29 cell line): no effect | IC50 (3T3-L1 cell line; [5]): > 100 µg/mL | cytotoxic / antiproliferative effect against 3T3-L1 (in words) (3T3-L1 cell line): no effect

CCCCCCOc1ccc([C@@H]2CC(=NO)c3c(O)cc(OCCCCCC)cc3O2)cc1 [Compound 2b, 7,4’-di-O-hexylnaringenin oxime]
IC50 (HT-29 cell line; [4]): > 100 µg/mL | IC50 (3T3-L1 cell line; [5]): > 100 µg/mL

CCCCCCCOc1cc(O)c2c(c1)O[C@H](c1ccc(O)cc1)CC2=O [Compound 3a, 7-O-heptylnaringenin]
IC50 (HT-29 cell line; [4]): 28.7 µg/mL (≈ 77.5 µM) | cytotoxic / antiproliferative effect against HT-29 (in words) (HT-29 cell line): antiproliferative activity | IC50 (3T3-L1 cell line; [5]): 25.6 µg/mL (≈ 69 µM) | cytotoxic / antiproliferative effect against 3T3-L1 (in words) (3T3-L1 cell line): cytotoxic activity

CCCCCCCOc1cc(O)c2c(c1)O[C@H](c1ccc(O)cc1)CC2=NO [Compound 3b, 7-O-heptylnaringenin oxime]
IC50 (HT-29 cell line; [4]): 29.1 µg/mL (≈ 75.6 µM) | cytotoxic / antiproliferative effect against HT-29 (in words) (HT-29 cell line): cytotoxic effects | IC50 (3T3-L1 cell line; [5]): 32.1 µg/mL (≈ 83.3 µM)

CCCCCCCOc1ccc([C@@H]2CC(=O)c3c(O)cc(OCCCCCCC)cc3O2)cc1 [Compound 4a, 7,4’-di-O-heptylnaringenin]
IC50 (HT-29 cell line; [4]): > 100 µg/mL | cytotoxic / antiproliferative effect against HT-29 (in words) (HT-29 cell line): no effect | IC50 (3T3-L1 cell line; [5]): > 100 µg/mL | cytotoxic / antiproliferative effect against 3T3-L1 (in words) (3T3-L1 cell line): no effect

CCCCCCCOc1ccc([C@@H]2CC(=NO)c3c(O)cc(OCCCCCCC)cc3O2)cc1 [Compound 4b, 7,4’-di-O-heptylnaringenin oxime]
IC50 (HT-29 cell line; [4]): 43.4 µg/mL (≈ 89.6 µM) | IC50 (3T3-L1 cell line; [5]): > 100 µg/mL | adhesion of E. coli to HT-29 higher than in the control ([2]; 25 µg/mL): 17 fold | adhesion of E. coli to HT-29 higher than in the control ([2]; 50 µg/mL): 5 fold | level of adherence of E. coli to HT-29 ([2]; 1–10 µg/mL or 75–100 µg/mL): very low

CCCCCCCCOc1cc(O)c2c(c1)O[C@H](c1ccc(O)cc1)CC2=O [Compound 5a, 7-O-octylnaringenin]
IC50 (HT-29 cell line; [4]): 38.4 µg/mL (≈ 99.7 µM) | cytotoxic / antiproliferative effect against HT-29 (in words) (HT-29 cell line): antiproliferative activity | IC50 (3T3-L1 cell line; [5]): 20.1 µg/mL (≈ 52.3 µM) | cytotoxic / antiproliferative effect against 3T3-L1 (in words) (3T3-L1 cell line): cytotoxic activity

CCCCCCCCOc1cc(O)c2c(c1)O[C@H](c1ccc(O)cc1)CC2=NO [Compound 5b, 7-O-octylnaringenin oxime]
IC50 (HT-29 cell line; [4]): 49.8 µg/mL (≈ 125 µM) | cytotoxic / antiproliferative effect against HT-29 (in words) (HT-29 cell line): cytotoxic effects | IC50 (3T3-L1 cell line; [5]): 49.9 µg/mL (≈ 125 µM)

CCCCCCCCOc1ccc([C@@H]2CC(=O)c3c(O)cc(OCCCCCCCC)cc3O2)cc1 [Compound 6a, 7,4’-di-O-octylnaringenin]
IC50 (HT-29 cell line; [4]): > 100 µg/mL | cytotoxic / antiproliferative effect against HT-29 (in words) (HT-29 cell line): no effect | IC50 (3T3-L1 cell line; [5]): > 100 µg/mL | cytotoxic / antiproliferative effect against 3T3-L1 (in words) (3T3-L1 cell line): no effect

CCCCCCCCOc1ccc([C@@H]2CC(=NO)c3c(O)cc(OCCCCCCCC)cc3O2)cc1 [Compound 6b, 7,4’-di-O-octylnaringenin oxime]
IC50 (HT-29 cell line; [4]): > 100 µg/mL | IC50 (3T3-L1 cell line; [5]): > 100 µg/mL

CCCCCCCCCOc1cc(O)c2c(c1)O[C@H](c1ccc(O)cc1)CC2=O [Compound 7a, 7-O-nonylnaringenin]
IC50 (HT-29 cell line; [4]): 46.7 µg/mL (≈ 117 µM) | cytotoxic / antiproliferative effect against HT-29 (in words) (HT-29 cell line): antiproliferative activity | IC50 (3T3-L1 cell line; [5]): 22.2 µg/mL (≈ 55.8 µM) | cytotoxic / antiproliferative effect against 3T3-L1 (in words) (3T3-L1 cell line): cytotoxic activity | effect on adhesion of E. faecalis to 3T3-L1 (in words) [3]: often actually limited the attachment

CCCCCCCCCOc1cc(O)c2c(c1)O[C@H](c1ccc(O)cc1)CC2=NO [Compound 7b, 7-O-nonylnaringenin oxime]
IC50 (HT-29 cell line; [4]): 57.8 µg/mL (≈ 140 µM) | cytotoxic / antiproliferative effect against HT-29 (in words) (HT-29 cell line): cytotoxic effects | IC50 (3T3-L1 cell line; [5]): 41.6 µg/mL (≈ 101 µM) | effect on adhesion of E. faecalis to 3T3-L1 (in words) [3]: often actually limited the attachment

CCCCCCCCCOc1ccc([C@@H]2CC(=O)c3c(O)cc(OCCCCCCCCC)cc3O2)cc1 [Compound 8a, 7,4’-di-O-nonylnaringenin]
IC50 (HT-29 cell line; [4]): > 100 µg/mL | cytotoxic / antiproliferative effect against HT-29 (in words) (HT-29 cell line): no effect | IC50 (3T3-L1 cell line; [5]): > 100 µg/mL | cytotoxic / antiproliferative effect against 3T3-L1 (in words) (3T3-L1 cell line): no effect

CCCCCCCCCCCOc1cc(O)c2c(c1)O[C@H](c1ccc(O)cc1)CC2=O [Compound 9a, 7-O-undecylnaringenin]
IC50 (HT-29 cell line; [4]): > 100 µg/mL | IC50 (3T3-L1 cell line; [5]): 80.6 µg/mL (≈ 189 µM) | cytotoxic / antiproliferative effect against 3T3-L1 (in words) (3T3-L1 cell line): cytotoxic activity | effect on adhesion of E. faecalis to 3T3-L1 (in words) [3]: often actually limited the attachment

CCCCCCCCCCCOc1cc(O)c2c(c1)O[C@H](c1ccc(O)cc1)CC2=NO [Compound 9b, 7-O-undecylnaringenin oxime]
IC50 (HT-29 cell line; [4]): > 100 µg/mL | IC50 (3T3-L1 cell line; [5]): > 100 µg/mL | effect on adhesion of E. faecalis to 3T3-L1 (in words) [3]: often actually limited the attachment

CCCCCCCCCCCOc1ccc([C@@H]2CC(=O)c3c(O)cc(OCCCCCCCCCCC)cc3O2)cc1 [Compound 10a, 7,4’-di-O-undecylnaringenin]
IC50 (HT-29 cell line; [4]): > 100 µg/mL | cytotoxic / antiproliferative effect against HT-29 (in words) (HT-29 cell line): no effect | IC50 (3T3-L1 cell line; [5]): > 100 µg/mL | cytotoxic / antiproliferative effect against 3T3-L1 (in words) (3T3-L1 cell line): no effect | bacterial adhesion disturbed (decrease), E. coli to 3T3-L1 ([1]; regardless of the concentration used): ≈ 2 fold

CCCCCCCCCCCOc1ccc([C@@H]2CC(=NO)c3c(O)cc(OCCCCCCCCCCC)cc3O2)cc1 [Compound 10b, 7,4’-di-O-undecylnaringenin oxime]
IC50 (HT-29 cell line; [4]): 48.2 µg/mL (≈ 80.9 µM) | IC50 (3T3-L1 cell line; [5]): > 100 µg/mL

ON=C1C[C@@H](c2ccc(O)cc2)Oc2cc(O)cc(O)c21 [NGOX, naringenin oxime, reference compound]
IC50 HT-29 (HT-29 cell line; [4]): >100 µg/mL | IC50 3T3-L1 (3T3-L1 cell line; [5]): >100 µg/mL
